We go through nine compounds from patent US8829006B2, “Compounds” (Boehringer Ingelheim International GmbH, priority 2007, dated 2014).

T1 sequence (Q16602 23-461): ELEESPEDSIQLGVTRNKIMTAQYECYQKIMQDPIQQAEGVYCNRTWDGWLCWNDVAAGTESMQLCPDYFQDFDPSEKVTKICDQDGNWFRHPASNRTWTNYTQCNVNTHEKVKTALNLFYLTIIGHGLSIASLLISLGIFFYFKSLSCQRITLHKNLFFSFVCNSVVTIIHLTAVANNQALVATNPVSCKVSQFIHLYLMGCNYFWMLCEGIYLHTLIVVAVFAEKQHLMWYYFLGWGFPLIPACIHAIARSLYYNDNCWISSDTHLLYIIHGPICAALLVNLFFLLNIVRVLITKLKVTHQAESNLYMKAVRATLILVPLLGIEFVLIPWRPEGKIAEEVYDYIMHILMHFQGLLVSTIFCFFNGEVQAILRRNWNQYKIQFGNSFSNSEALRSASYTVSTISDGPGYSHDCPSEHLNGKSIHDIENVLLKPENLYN
T1 sequence (O60894 27-148): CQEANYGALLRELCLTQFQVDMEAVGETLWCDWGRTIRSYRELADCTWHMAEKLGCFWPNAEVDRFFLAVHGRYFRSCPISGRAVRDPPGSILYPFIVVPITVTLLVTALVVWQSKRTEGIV

This experiment addresses T1, human CGRP receptor (Homo sapiens, UniProt O60894+Q16602).
T1 construct: SK-N-MC membranes (˜20 μg protein) are incubated for 180 minutes at ambient temperature; endogenous in cells; host or cells: SK-N-MC cells (membranes)
The experiment can be described thus: Binding studies with SK-N-MC cells (expressing the human CGRP receptor). The conditions noted are these: SK-N-MC membranes, 50 pM 125I-iodotyrosyl-CGRP, 180 minutes at ambient temperature. The method, then:
A. Binding Studies with SK-N-MC Cells (Expressing the Human CGRP Receptor)
SK-N-MC membranes (˜20 μg protein) are incubated for 180 minutes at ambient temperature with 50 pM ^125I-iodotyrosyl-Calcitonin-Gene-Related Peptide and increasing concentrations of the test substances in a total volume of 250 μl (assay buffer: 10 mM tris, 50 mM NaCl, 5 mM MgCl2, 1 mM EDTA, pH=7.4). The incubation is ended by rapid filtration through GF/B-glass fibre filters treated with polyethyleneimine (0.1%) using a cell harvester. The protein-bound radioactivity is measured using a gamma counter. Non-specific binding is defined as the bound radioactivity after the presence of 1 μM BIBN4096BS during incubation.
The concentration binding curves are analysed using computer-aided non-linear curve fitting.
One may read the Ki as a measure of affinity in units of concentration, obtained from inhibition or displacement. A low value points to a stronger hold on the target. `COc1ccc2c(c1)CCN(C1CCN(c3cc(C(=O)N4Cc5cn[nH]c5C(C)(C)C4)ncn3)CC1)C(=O)N2` [(8)]: the Ki was found to be 4 nM.

With `O=C(c1cc(N2CCC(n3c(=O)[nH]c4ncccc43)CC2)ncn1)N1CCC2CCCCC21` (stereo not drawn) [(11)], affinity was put at a Ki of 34 nM. Turning to `O=C(c1cc(N2CCC(n3nc(-c4ccccc4)[nH]c3=O)CC2)ncn1)N1CCc2ccccc21` [(15)], the Ki amounted to 21 nM. Under `O=C(c1cc(N2CCC(n3c(=O)[nH]c4ncccc43)CC2)ncn1)N1Cc2ccccc2C1` [(17)] stands 117 nM. As to `O=C(c1cc(N2CCC(n3c(=O)[nH]c4ncccc43)CC2)ncn1)N1CCc2cc(F)ccc21` [(36)], the affinity, expressed as Ki, was 5 nM. `CC1(C)CN(C(=O)c2cc(N3CCC(n4c(=O)[nH]c5ncccc54)CC3)ncn2)c2ccc(F)cc21` [(37)] had a Ki of 2 nM.

`O=C(c1cc(N2CCC(n3c(=O)[nH]c4ncccc43)CC2)ncn1)N1CC(CCCN2CCCC2)c2ccccc21` (stereo not drawn) [(41)] displayed a Ki of 21 nM.

Consider `CC1(C)CCN(C(=O)c2cc(N3CCC(n4c(=O)[nH]c5ncccc54)CC3)ncn2)C1` [(50)], for which the affinity corresponds to a Ki of 690 nM.

For the compound `CC1(C)CN(C(=O)c2cc(N3CCC(n4c(=O)[nH]c5ncccc54)CC3)ncn2)Cc2ccccc21` [(55)], the Ki came out at 3 nM.
